Here are results for six molecules from patent publication US7470683B2, “Tetracyclic compounds” (Les Laboratoires Servier, priority 2006, dated 2008).

Structures are written as SMILES.

For assay [1], the target named is T1, human dopamine D2 receptor (Homo sapiens, UniProt P14416).
T1 construct: expressed in transfected cells; membranes
Put plainly: Human D2 receptor binding study ([125I]-iodosulpride, CHO cell membranes). To be noted: [125I]-iodosulpride 0.1 nM, read-out: pKi hD2 (converted). The method, then: (§1) CHO (Chinese Hamster Ovary) cells are stably transfected with the gene encoding the human dopamine D2 or D3 receptor, in accordance with methods known from the literature. The native cells are deficient in the enzyme DHFR (DiHydroFolate Reductase). […] The transfections are carried out using Lipofectin (Gibco). The CHO cells co-transfected with the human D2 receptor and the phleomycin resistance gene are selected for their resistance to the presence of that antibiotic in the culture medium. The cells transfected with the human D3 receptor are selected, in a medium lacking hypoxanthine/thymidine, in the presence of methotrexate. The compositions of the culture media used are: for CHO-D2, DMEM (Dulbecco's Modified Eagle Medium) supplemented with 10% foetal calf serum and hypoxanthine/thymidine; and for CHO-D3, DMEM supplemented with 10% dialysed foetal calf serum. The cells are harvested at confluence and the membranes are then prepared.
After a few minutes in the presence of 0.2% trypsin, the cells are collected and centrifuged at 2,000 g for 5 minutes. The cell mass, which is re-suspended in 10 mM Tris-HCl buffer pH 7.5 containing 5 mM MgSO4, is then homogenised using a Polytron®. The homogenate is then centrifuged at 50,000 g for 15 minutes, and the sediment is re-suspended by gentle sonication in an incubation buffer having the composition: 50 mM Tris-HCl pH 7.5 containing 120 mM NaCl, 5 mM KCl, 2 mM CaCl2, 5 mM MgCl2. The membranes are then divided into aliquots and stored at −80° C. until the day of the experiment.
The concentration ranges of each compound include at least seven points determined in triplicate. Each experiment is repeated at least twice.
The incubation, which lasts for thirty minutes at 30° C., is terminated by rapid filtering through a Brandle apparatus, followed by three consecutive rinsings with Tris-HCl buffer pH 7.4 containing 120 mM NaCl. The filters are collected and then subjected to counting using a gamma counter.
The results are expressed in the form of pKi (pKi=−logKi).

Assay [2] concerns rats having a unilateral lesion of the Substantia nigra. Put plainly: Rotations induced by dopaminergic agonists in rats having a unilateral 6-OH-DA lesion of the Substantia nigra. The following applies: for Contralateral rotations mean ± s.e.m.: recorded for one hour, carrier 53.8 ± 12.8. The class given is in vivo, rat.
For assay [3], the target named is T2, human dopamine D3 receptor (Homo sapiens, UniProt P35462).
T2 construct: expressed in transfected cells; membranes
T2 sequence (P35462 whole entry): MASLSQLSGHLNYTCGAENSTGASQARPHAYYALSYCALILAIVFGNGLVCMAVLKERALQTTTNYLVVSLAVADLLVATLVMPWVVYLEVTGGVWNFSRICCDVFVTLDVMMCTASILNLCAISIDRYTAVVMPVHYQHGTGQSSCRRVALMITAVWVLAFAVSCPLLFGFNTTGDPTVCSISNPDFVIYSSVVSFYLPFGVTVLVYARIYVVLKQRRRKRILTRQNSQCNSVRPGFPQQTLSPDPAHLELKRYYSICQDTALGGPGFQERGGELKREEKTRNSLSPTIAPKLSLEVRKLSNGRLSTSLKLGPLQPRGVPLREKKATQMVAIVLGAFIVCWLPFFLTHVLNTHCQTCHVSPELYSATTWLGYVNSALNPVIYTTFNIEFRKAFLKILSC
Put plainly: Human D3 receptor binding study ([125I]-iodosulpride, CHO cell membranes). The following applies: [125I]-iodosulpride 0.2 nM, read-out: pKi hD3 (converted). The method, then: as §1
After a few minutes in the presence of 0.2% trypsin, the cells are collected and centrifuged at 2,000 g for 5 minutes. The cell mass, which is re-suspended in 10 mM Tris-HCl buffer pH 7.5 containing 5 mM MgSO4, is then homogenised using a Polytron®. […]
The concentration ranges of each compound include at least seven points determined in triplicate. […]

Assay [4] concerns presynaptic dopaminergic autoreceptor. Put plainly: Presynaptic dopaminergic autoreceptor activation: unitary extracellular electrical activity in the ventral tegmentum area of the rat. Format: in vivo. The following applies: cumulative doses, relative to basal activity = 100%, mean ± s.e.m., n = 5. The method, then:
Test Recording the Unitary Extracellular Electrical Activity in the Ventral Tegmentum Area of the Rat
Administration of a dopaminergic agonist decreases neuron discharge frequency in dose-dependent manner. This effect is reversed by haloperidol, a dopaminergic antagonist.
The rats are anaesthetised using chloral hydrate (400 mg/kg, i.p.) and placed in a stereotactic apparatus (Unimécanique, France) after catheterisation of the femoral vein. The level of anaesthesia is maintained by i.p. administration of chloral hydrate every hour; rectal temperature is held at 37±1° C. by means of a thermostatically controlled heated blanket. A tungsten microelectrode (10 MΩ, 1 μm) is advanced, using an electronic microdrive (Unimécanique, France), into the ventral tegmentum area (AP: −5.5/bregma; L: 0.7; H: 7.0-8.5/dura; Paxinos and Watson atlas, 1986). The potentials of dopaminergic cells are recognised by their morphology (triphasic potentials +/−/+, of a duration greater than 3 msec), their discharge rhythm, whether regular or in bursts of decreasing amplitude, and their discharge frequency, which is from 2 to 8 Hz. A single cell per animal is used for recording.
After a period ≧5 minutes (basal activity) and an initial injection of carrier (distilled water to which a few drops of dilute lactic acid have been added; pH adjusted to 5 using 1N NaOH), the products of the invention are administered intravenously in cumulatively increasing doses at intervals of 2-3 minutes.
Data acquisition is performed by the Spike2 software package (Cambridge Electronic Design, England). The discharge frequency is measured over one minute at the maximum change between each injection and is expressed as the percentage change with respect to the basal activity (averaged over the 5 minutes preceding the first treatment), which is defined as 100%. The effect of the products is statistically evaluated by analysis of variance over repeated measurements, followed by a Dunnett's test for comparison of the effects of different doses with the effect of the carrier (distilled water).

Assay [5] deals with rat. Put plainly: Forced swimming test in the rat (antidepressive properties). The class given is in vivo. The following applies: for Immobility (sec) mean ± s.e.m.: 30 min before 5-min test, carrier 174.3 ± 9.1. An excerpt: The forced swimming test (Porsolt R. et al, Eur. J. Pharmacol., 1978, 47, 379-91) is a behavioural test which comprises inducing a state of “despair” in the rat, by placing the naive animal in an enclosure full of water, from which it cannot escape, for a period of fifteen minutes. For the first five to ten minutes, the rat struggles vigorously but finally adopts an immobile posture during the last part of the test. Placed in the same enclosure on the following day, the animal remains immobile for most of the test (5 minutes' duration). Antidepressants reduce the duration of immobility of the rat during the test.
The experiment is carried out over two days, with a 24-hour interval, on rats having an average weight of 170 g, housed the day before in individual cages, with free access to food and drink.
On the first day, each rat is placed for fifteen minutes in a glass cylinder (20 cm diameter×40 cm high) filled to a height of 15 cm with water maintained at 25° C. On the second day, the animal is again placed in a cylinder for a period of five minutes; the total period of immobility (in seconds) of the rat is measured. The product or the solvent is administered to the animal thirty minutes before the beginning of the test. The effect of the products is statistically evaluated by analysis of variance over repeated measurements, followed by a Dunnett's test for comparison of the effects of different doses with the effect of the carrier (distilled water).

Assay [6] has as its system rat. The assay can be described thus: Ultrasonic vocalisation test in the rat (anxiolytic properties). Format: in vivo. To be noted: for Duration of ultrasonic vocalisations (s) mean ± s.e.m.: ten-minute recording, carrier 254.3 ± 42.1. An excerpt:
When a rat is placed in an environment previously associated with an unpleasant experience (electric shocks to the paws), its anxiety is shown by the emission of inaudible cries (or ultrasonic vocalisations).
Standard boxes (Coulbourn Instruments), placed in sound-attenuating ventilated enclosures, are provided with a floor composed of electrifiable metal bars (shock generator and scrambler, Med Associates Inc) and with a microphone located in the centre of the ceiling. The ultrasounds are converted into an audible range (bat detector, Buitenbedrijf). The signals modified in that manner are filtered and then processed (RTS software, Engineering Design). The spectrograms obtained are recorded on DAT tapes.
Male rats of the Wistar strain, weighing 180-200 g on their arrival, are housed in cages of four with free access to food and water, from five days before the start of the study until its end. The procedure employed is divided up into three successive stages separated by 24 hours and called training, selection and test. During the training session, the animals are placed singly in the boxes, where they receive six electric shocks (0.8 mA, 8 s) randomly spaced over a period of seven minutes. Selection comprises placing each animal in a box for two minutes, where they receive a single shock, and putting them back in the box thirty minutes later for a ten-minute session of recording the ultrasonic vocalisations; those animals whose vocalisations last less than 90 seconds are excluded from the remainder of the experiment. The test phase proceeds in a similar manner to the selection stage, with the products or the carrier additionally being administered at the end of the two-minute session. The effect of the products is statistically evaluated by analysis of variance over repeated measurements, followed by a Dunnett's test for comparison of the effects of different doses with the effect of the carrier (distilled water).

T1 sequence (P14416 whole entry): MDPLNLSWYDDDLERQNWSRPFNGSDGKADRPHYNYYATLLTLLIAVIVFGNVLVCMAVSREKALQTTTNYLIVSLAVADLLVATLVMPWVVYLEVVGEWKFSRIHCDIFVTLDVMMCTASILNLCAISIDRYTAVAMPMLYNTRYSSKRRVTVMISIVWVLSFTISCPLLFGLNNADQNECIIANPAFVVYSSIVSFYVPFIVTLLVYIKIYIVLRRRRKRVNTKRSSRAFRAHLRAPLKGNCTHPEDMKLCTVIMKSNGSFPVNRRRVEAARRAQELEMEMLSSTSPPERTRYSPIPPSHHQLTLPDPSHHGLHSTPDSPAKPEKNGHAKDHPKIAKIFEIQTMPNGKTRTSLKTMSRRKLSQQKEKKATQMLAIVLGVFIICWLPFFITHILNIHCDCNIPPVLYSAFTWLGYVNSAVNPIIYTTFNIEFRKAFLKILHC

`CCCN1CCO[C@@H]2c3cc4c(=O)[nH]ccc4cc3CC[C@H]21` [Example 8, (4aR,12bR)-4-Propyl-2,3,4,4a,5,6,10,12b-octahydro-11H-isoquino-[6,7-h][1,4]benzoxazin-11-one]: the Ki in assay [1] is 1.26 µM.

With `CN1CCc2cccc3c2[C@H]1Cc1ccc(O)c(O)c1-3` [Apomorphine, apomorphine, reference compound], the “Contralateral rotations mean ± s.e.m.” value in assay [2] (0.02 mg/kg s.c.) worked out at 497.2 ± 91.4.

Turning to `CCCN1CCO[C@@H]2c3cc4c(cc3CC[C@H]21)CCNC4=O` [Example 6, (4aR,12bR)-4-Propyl-2,3,4,4a,5,6,8,9,10,12b-decahydro-11H-isoquino-[6,7-h][1,4]benzoxazin-11-one], in assay [1], the Ki was 0.794 µM.

Turning to `CCCN1CCO[C@@H]2c3cc4c(cc3CC[C@H]21)CCOC4=O` [Example 5, (4aR,12bR)-4-Propyl-3,4,4a,5,6,8,9,12b-octahydro-2H,11H-pyrano-[4′,3′:6,7]naphtho[1,2-b][1,4]oxazin-11-one], the Ki in assay [1] was 1.58 µM; in assay [3], 0.126 µM.

`CCCN1CCO[C@@H]2c3cc4c(cc3CC[C@H]21)COC4=O` [Example 4, (4aR,11bR)-4-Propyl-2,3,4,4a,5,6,8,11b-octahydro-10H-furo[3′,4′:6,7]-naphtho[1,2-b][1,4]oxazin-10-one]: the Ki in assay [1] is 2 µM.

With `CCCN1CCO[C@@H]2c3cc4c(cc3CC[C@H]21)CNC4=O` (single isomer, unassigned) [Example 2], the “Contralateral rotations mean ± s.e.m.” value in assay [2] (0.00063 mg/kg s.c.) amounted to 157.4 ± 32.1; in assay [2] (0.0025 mg/kg s.c.) it was 337.3 ± 48.3; in assay [2] (0.01 mg/kg s.c.) it was 553.8 ± 138.3. Moreover, the “Dose from which the product is active in the rotation test” value in assay [2] (s.c.) is no less than 2.5 µg/kg. Further, the Neuron discharge frequency in assay [4] (0.125 μg/kg i.v.) worked out at 91.8 ± 5.2%; in assay [4] (0.25 μg/kg i.v.), 79.9 ± 5.9 %; in assay [4] (0.5 μg/kg i.v.), 66.3 ± 5.9 %; in assay [4] (1.0 μg/kg i.v.), 42.0 ± 7.3 %; in assay [4] (2.0 μg/kg i.v.), 10.8 ± 8.7 %; in assay [4] (4.0 μg/kg i.v.), 2.3 ± 2.3 %. This molecule also displayed a Neuron discharge frequency in assay [4] (8.0 μg/kg i.v.) of 0.0 ± 0.0 %. The “Immobility (sec) mean ± s.e.m.” value was found to be 159.4 ± 7.9 s in the assay on rat [5] (0.02 mg/kg s.c.), 122.7 ± 21.2 s with rat [5] (0.04 mg/kg s.c.) and 22.03 ± 5.8 s with rat [5] (0.08 mg/kg s.c.). The “Effect on period of immobility (in words)” value in the assay on rat [5] (s.c., rat) was “reduces the period of immobility of the animal in dose-dependent manner”. Also, the “Duration of ultrasonic vocalisations (s) mean ± s.e.m.” value in the assay on rat [6] (0.0025 mg/kg s.c.) turned out to be 274.0 ± 59.0 s; in the assay on rat [6] (0.04 mg/kg s.c.) it was 28.0 ± 5.6 s; in the assay on rat [6] (0.63 mg/kg s.c.) it was 22.0 ± 3.2 s. Also, the “Effect on duration of vocalisations (in words)” value with rat [6] (doses of 0.04 and 0.63 mg/kg s.c.) was “substantial reduction in the duration of vocalisations”.
